Source: BindingDB's records for doi:10.1016/j.ejmech.2020.112034 (Shiv Nadar University, 2020)

How the values were obtained:
[1] = target: T1, Maltase-glucoamylase (Homo sapiens, UniProt O43451); assay: Mixed type inhibition of alpha-glucosidase (unknown origin) using p-nitrophenyl-alpha-D glucopyranoside as substrate incubated for 30 mins by Lineweaver-Burk plot analysis
[2] = target: T1, Maltase-glucoamylase; assay: Non-competitive inhibition of alpha-glucosidase (unknown origin) using p-nitrophenyl-alpha-D glucopyranoside as substrate incubated for 30 mins by Lineweaver-Burk plot analysis

T1 sequence (O43451 whole entry): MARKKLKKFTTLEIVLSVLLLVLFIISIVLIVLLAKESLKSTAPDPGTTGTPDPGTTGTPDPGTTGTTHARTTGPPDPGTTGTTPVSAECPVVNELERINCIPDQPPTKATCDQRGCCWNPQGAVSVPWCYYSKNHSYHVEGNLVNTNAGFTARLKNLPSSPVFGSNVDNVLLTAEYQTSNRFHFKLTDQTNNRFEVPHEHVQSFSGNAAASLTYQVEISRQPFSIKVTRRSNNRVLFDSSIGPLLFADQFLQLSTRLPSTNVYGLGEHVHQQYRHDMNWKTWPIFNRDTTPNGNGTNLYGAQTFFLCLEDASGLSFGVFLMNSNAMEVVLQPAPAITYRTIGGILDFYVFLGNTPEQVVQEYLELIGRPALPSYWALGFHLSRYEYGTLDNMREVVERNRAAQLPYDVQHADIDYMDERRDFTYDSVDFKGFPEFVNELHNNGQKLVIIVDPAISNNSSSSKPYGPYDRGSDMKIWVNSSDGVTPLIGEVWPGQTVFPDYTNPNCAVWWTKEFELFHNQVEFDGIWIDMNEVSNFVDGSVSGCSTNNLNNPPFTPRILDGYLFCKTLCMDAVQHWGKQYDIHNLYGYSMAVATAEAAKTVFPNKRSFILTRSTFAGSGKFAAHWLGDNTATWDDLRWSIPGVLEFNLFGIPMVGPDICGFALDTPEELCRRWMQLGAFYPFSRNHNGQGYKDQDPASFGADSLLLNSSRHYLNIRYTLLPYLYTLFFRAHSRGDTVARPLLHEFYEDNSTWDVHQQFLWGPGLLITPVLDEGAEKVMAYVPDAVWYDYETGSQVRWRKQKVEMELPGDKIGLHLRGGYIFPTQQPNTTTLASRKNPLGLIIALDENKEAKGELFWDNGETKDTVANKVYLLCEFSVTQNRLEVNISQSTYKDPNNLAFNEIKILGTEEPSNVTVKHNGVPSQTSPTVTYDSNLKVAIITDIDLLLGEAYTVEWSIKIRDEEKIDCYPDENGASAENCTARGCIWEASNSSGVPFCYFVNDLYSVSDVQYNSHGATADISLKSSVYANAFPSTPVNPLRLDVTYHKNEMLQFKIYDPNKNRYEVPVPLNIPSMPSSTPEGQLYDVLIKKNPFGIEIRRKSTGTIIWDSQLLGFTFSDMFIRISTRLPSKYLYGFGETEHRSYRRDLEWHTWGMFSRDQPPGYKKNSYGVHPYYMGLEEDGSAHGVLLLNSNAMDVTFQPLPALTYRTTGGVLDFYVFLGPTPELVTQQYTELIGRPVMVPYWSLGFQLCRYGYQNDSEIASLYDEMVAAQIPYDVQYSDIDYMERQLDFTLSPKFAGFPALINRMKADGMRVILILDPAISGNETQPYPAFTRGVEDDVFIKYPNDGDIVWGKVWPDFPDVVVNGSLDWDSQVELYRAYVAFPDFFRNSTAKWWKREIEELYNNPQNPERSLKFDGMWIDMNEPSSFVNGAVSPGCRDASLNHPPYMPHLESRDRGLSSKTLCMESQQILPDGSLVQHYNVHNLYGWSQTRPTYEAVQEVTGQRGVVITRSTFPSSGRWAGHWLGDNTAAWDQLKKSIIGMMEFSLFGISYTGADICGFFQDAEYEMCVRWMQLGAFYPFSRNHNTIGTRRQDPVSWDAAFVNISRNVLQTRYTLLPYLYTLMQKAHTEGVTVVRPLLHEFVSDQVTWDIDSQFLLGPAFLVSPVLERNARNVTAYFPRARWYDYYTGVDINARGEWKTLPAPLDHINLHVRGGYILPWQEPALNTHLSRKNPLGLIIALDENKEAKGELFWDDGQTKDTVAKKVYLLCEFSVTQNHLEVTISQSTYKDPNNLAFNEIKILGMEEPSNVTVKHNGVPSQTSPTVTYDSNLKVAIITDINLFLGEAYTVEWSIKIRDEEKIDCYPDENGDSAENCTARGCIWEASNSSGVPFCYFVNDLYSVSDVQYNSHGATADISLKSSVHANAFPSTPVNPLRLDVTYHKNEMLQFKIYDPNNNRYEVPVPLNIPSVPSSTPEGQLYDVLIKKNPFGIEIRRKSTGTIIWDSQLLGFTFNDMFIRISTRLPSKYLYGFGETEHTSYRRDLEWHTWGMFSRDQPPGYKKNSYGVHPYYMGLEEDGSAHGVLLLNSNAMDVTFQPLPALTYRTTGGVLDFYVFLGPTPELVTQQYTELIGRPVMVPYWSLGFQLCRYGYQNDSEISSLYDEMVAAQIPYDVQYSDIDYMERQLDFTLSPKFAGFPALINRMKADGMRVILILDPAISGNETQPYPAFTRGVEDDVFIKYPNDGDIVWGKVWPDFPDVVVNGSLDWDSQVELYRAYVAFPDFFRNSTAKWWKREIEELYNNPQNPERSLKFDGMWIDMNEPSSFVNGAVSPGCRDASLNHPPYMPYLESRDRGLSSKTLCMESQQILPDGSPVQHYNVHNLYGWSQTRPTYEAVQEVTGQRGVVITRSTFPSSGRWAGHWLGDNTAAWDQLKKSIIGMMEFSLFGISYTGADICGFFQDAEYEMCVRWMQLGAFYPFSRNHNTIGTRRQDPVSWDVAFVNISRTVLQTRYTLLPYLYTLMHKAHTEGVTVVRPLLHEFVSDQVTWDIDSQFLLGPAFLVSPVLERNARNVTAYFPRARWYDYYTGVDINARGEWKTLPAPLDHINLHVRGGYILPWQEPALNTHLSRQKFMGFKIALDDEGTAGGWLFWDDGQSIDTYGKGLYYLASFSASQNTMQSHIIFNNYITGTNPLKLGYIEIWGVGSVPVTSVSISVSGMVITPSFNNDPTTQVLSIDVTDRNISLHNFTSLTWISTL

Ki [1] [µM] | Ki [2] [µM] | Compound
2.3 |  | CC(C)=CCc1cc(-c2oc3cc(O)c(CC=C(C)C)c(O)c3c(=O)c2O)cc(O)c1O [CHEBI:66727]
 | 5.3 | CC(C)=CCc1cc(C(=O)/C=C/c2ccc(O)c(O)c2)c(O)cc1O [broussochalcone A]
